Assay results: patent US20050065199A1, “Low-salt or salt-free microbicidal composition based on isothiazolone derivatives and pyrion disulphide” (priority 2003, published 2005)
Read-outs that look alike come from different tables or passages of the source.

How the values were obtained:
[1] = Protocol: Moreover, it is preferred that the reaction is carried out over a period of 5 minutes to 4 hours, preferably up to 120 minutes and in particular up to 60 minutes. Suitable reaction temperatures are in the range of from 0 to 80° C., preferably 10 to 40° C. and in particular 20 to 30° C. If appropriate, the stabilizer solution obtained after the reaction can be filtered in order to remove troublesome solid components.
[2] = Stabilization of Kathon 39 FG / bromo-2-nitropropane-1,3-diol basic preparation: appearance and pH on storage
Protocol: A basic preparation which contained 88.34% of purified water, 6.00% of bromo-2-nitropropane-1,3-diol and 5.66% of Kathon 39 FG was made. […] Kathon 39 FG is a mixture of CMI and MI prepared with solvent and a low salt and water content (available from Rohm & Haas Company). Thereafter, 100 g of the basic preparation were brought to a pH of 5.16 with triethanolamine (preparation A) and with imidazole to a pH of 5.32 (preparation B). Preparation C was prepared with the addition of 0.1% of pyrion disulphide to 100 g of the basic preparation. The basic preparation D (without addition) acted as reference. The appearance of a freshly made preparation and the appearance as affected by increasing storage times were examined. In addition, the pH of all preparations was tested after 35 days.

[O-][n+]1ccccc1SSc1cccc[n+]1[O-] [pyrion disulphide, 2,2′-dithiobis(pyridine N-oxide)]
solubility in water [1]: 0.9 % by weight | stabilization of aqueous CMI/MI-based preparation containing 6.00% of bromo-2-nitropropane-1,3-diol [2]: improved

c1c[nH]cn1 [imidazole]
stabilization of aqueous CMI/MI-based preparation containing 6.00% of bromo-2-nitropropane-1,3-diol ([2]; additive to the basic preparation, versus basic preparation D): stabilizing effect on the composition, albeit to a lesser extent
